# Where a name gives a salt, the structure may show the parent alone.
# Legend:
# [1] = target: human A2A receptors expressed in CHO cells (Homo sapiens, UniProt P29274); assay: competition binding at human A2A adenosine receptors ([3H]NECA displacement); details: for Ki: displacement of [3H]NECA, CHO cells, 95% confidence limits, n = 3–6, read-out: Ki hA2A; for hA1/hA2A / hA3/hA2A: selectivity ratio of Ki values
# Method: (§1) A two-step procedure was adopted to prepare membrane for radioligand binding from cells stably transfected with human adenosine receptor subtypes (hA1, hA2A and hA3 expressed on CHO cells). Firstly, cell fragments and nuclei were removed by using low-speed centrifugation (1,000 g for 10 min). After that, crude membrane fraction from supernatant was then sedimented at 100,000 g for 30 min. The membrane pellet was subsequently re-suspended in the specific binding buffer, frozen in liquid nitrogen and stored at -80°C. For measurement of adenylyl cyclase activity in the hA2B receptors, one-step centrifugation procedure was used; the homogenate was sedimented for 30 min at 54,000 g. The so-obtained crude membrane pellet was re-suspended in 50 mM Tris/HCl, pH 7.4 and used for the adenylyl cyclase assay immediately.
# (§2) Non-specific binding was determined using theophylline 1 mM. […] Non-specific binding was determined using N^6-R-phenylisopropyl adenosine (R-PIA) 100 μM. ^41 The binding of [^3H]HEMADO to CHO cells transfected with hA3 adenosine receptors was carried out as described earlier. […] Non-specific binding was determined using R-PIA 100 μM.
# (§3) The assay mixture was then filtered through the built-in filter at the bottom of the 96-well microplate filtration system (Millipore Multiscreen MAFC) and washed three times with 200 μL of cold buffer. After addition of 20 μL of scintillator to the dried filter plates, the filter bound radioactivity was counted on a Wallac Micro-Beta counter. All Ki values were calculated by non-linear curve fitting with the program SCTFIT [45].
# [2] = target: T1, human A3 receptors expressed in CHO cells (Homo sapiens, UniProt P0DMS8); assay: competition binding at human A3 adenosine receptors ([3H]HEMADO displacement); details: displacement of [3H]HEMADO, 95% confidence limits, n = 3–6, read-out: Ki hA3
# T1 sequence (P0DMS8 1-318): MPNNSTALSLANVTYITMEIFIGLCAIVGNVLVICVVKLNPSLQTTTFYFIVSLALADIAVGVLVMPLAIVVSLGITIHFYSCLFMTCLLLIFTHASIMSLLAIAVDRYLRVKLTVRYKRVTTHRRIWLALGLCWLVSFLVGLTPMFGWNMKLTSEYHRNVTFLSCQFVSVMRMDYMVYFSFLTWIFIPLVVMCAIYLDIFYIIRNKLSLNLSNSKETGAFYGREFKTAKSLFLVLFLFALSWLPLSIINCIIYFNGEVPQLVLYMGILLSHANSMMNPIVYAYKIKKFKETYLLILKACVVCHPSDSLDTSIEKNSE
# Method: as §1, §2, §3
# [3] = target: T2, human A2B receptors expressed in CHO cells (Homo sapiens, UniProt P29275); assay: inhibition of NECA-stimulated adenylyl cyclase activity at hA2B
# T2 sequence (P29275 1-332): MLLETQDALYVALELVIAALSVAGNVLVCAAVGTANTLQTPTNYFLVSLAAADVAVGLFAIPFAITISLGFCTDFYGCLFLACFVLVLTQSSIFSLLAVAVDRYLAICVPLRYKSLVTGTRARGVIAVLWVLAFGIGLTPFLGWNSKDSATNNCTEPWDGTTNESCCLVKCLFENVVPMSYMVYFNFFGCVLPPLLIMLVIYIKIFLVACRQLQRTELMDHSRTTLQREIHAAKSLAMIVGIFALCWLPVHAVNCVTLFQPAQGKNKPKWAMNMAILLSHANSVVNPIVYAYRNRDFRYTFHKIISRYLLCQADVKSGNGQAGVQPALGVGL
# [4] = target: T3, human A1 receptors expressed in CHO cells (Homo sapiens, UniProt P30542); assay: competition binding at human A1 adenosine receptors ([3H]CCPA displacement); details: displacement of [3H]CCPA, 95% confidence limits, n = 3–6, read-out: Ki hA1
# T3 sequence (P30542 1-326): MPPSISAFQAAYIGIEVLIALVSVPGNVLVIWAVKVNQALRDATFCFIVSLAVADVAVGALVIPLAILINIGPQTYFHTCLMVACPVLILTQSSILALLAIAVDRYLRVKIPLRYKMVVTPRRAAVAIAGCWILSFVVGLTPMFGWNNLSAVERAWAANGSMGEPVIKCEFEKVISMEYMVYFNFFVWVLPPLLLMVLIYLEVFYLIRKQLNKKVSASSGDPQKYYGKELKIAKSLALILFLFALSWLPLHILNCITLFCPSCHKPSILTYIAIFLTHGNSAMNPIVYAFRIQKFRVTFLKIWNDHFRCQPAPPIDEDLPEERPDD
# Method: as §1, §2, §3
# [5] = target: T1, human A3 receptors expressed in CHO cells; set-up: method as in PMID 17126322; details: read-out: KD of radioligand at hA3; cited from earlier work
# D2 receptor = details: competition binding experiments with [3H]spiperone; cited from earlier work
# hA2A = details: read-out: Ki hA2A; cited from earlier work
# Sequence of human A2A receptors expressed in CHO cells (P29274 whole entry, the tested form may be a part): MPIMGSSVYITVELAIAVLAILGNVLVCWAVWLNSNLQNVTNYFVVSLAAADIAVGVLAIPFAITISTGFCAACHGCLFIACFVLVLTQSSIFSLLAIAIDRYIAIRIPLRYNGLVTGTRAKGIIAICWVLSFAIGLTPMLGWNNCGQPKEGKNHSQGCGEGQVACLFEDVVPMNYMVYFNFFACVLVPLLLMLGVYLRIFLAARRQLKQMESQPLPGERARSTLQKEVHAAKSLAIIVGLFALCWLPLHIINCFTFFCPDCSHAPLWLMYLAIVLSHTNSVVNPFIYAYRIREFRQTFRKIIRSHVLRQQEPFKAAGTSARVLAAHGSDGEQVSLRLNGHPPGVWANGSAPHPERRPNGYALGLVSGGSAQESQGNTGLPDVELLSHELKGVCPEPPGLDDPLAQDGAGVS
Ki [1] [µM],hA1/hA2A [1],hA3/hA2A [1],fold decrease in hA2A affinity ([1]; versus compound 6) [fold],Ki [2] [µM],Ki [3] [µM],Ki [4] [µM],fold improvement in hA2A affinity ([1]; versus compound 5) [fold],Structure (SMILES),Kd [5] [µM],Ki (D2 receptor) [µM],Ki (hA2A) [µM]
27.6,>4,>1,3.2,> 30,> 20,> 100,–,"Cc1cc(C)nc(N2CCN(C(=O)Cc3c[nH]c4ccccc34)CC2)n1 [Compound 18, 1‐[4‐(4,6‐Dimethylpyrimidin‐2‐yl)piperazin‐1‐yl]‐2‐(1H‐indol‐3‐yl)ethan‐1‐one]",–,–,–
18.2,>6,>2,–,> 30,> 20,> 100,–,"Cc1cc(C)nc(N2CCN(C(=O)Cc3c(C)[nH]c4ccc(F)cc34)CC2)n1 [Compound 15, 1‐[4‐(4,6‐Dimethylpyrimidin‐2‐yl)piperazin‐1‐yl]‐2‐(5‐fluoro‐2‐methyl‐1H‐indol‐3‐yl)ethan‐1‐one]",–,–,–
29.7,0.16,>1,–,> 30,> 20,4.82,–,"Cc1cc(C)nc(N2CCN(C(=O)c3cc4cccc([N+](=O)[O-])c4[nH]3)CC2)n1 [Compound 25, {2‐[4‐(4,6‐Dimethylpyrimidin‐2‐yl)piperazine‐1‐carbonyl]‐1H‐indol‐7‐yl}azinic acid]",–,–,–
> 100,–,–,–,> 100,> 20,> 100,–,"Cc1cc(C)nc(N2CCN(C(=O)Cc3c(C)[nH]c4c(F)cc(Br)cc34)CC2)n1 [Compound 17, 2‐(5‐Bromo‐7‐fluoro‐2‐methyl‐1H‐indol‐3‐yl)‐1‐[4‐(4,6-dimethylpyrimidin‐2‐yl)piperazin‐1‐yl]ethan‐1‐one]",–,–,–
> 100,–,–,–,> 100,> 20,> 100,–,"Cc1ccc2[nH]c(C(=O)N3CCN(c4nc(C)cc(C)n4)CC3)cc2c1 [Compound 23, 2‐[4‐(4,6‐Dimethylpyrimidin‐2‐yl)piperazine‐1‐carbonyl]‐5‐methyl‐1H‐indole]",–,–,–
> 100,–,–,–,–,> 20,–,–,"Cc1cc(C)nc(N2CCN(C(=O)CCc3c[nH]c4ccccc34)CC2)n1 [Compound 7, 1‐[4‐(4,6‐Dimethylpyrimidin‐2‐yl)piperazin‐1‐yl]‐3‐(1H‐indol‐3-yl)propan‐1‐one]",–,–,–
–,–,–,–,–,–,–,–,"CCCCC#Cc1nc(NC)c2ncn([C@@H]3O[C@H](CO)[C@@H](O)[C@H]3O)c2n1 [[^3H]HEMADO, [^3H]-2-hexyn-1-yl-N^6-methyladenosine]",0.0011,–,–
12.7,>8,>2,–,> 30,> 20,> 100,–,"COc1ccc2[nH]cc(C(=O)N3CCN(c4nc(C)cc(C)n4)CC3)c2c1 [Compound 14, 3‐[4‐(4,6‐Dimethylpyrimidin‐2‐yl)piperazine‐1‐carbonyl]‐5‐methoxy‐1H‐indole]",–,–,–
> 30,–,–,–,> 30,> 20,> 100,–,"Cc1cc(C)nc(N2CCN(Cc3c[nH]c4ccccc34)CC2)n1 [Compound 9, 3‐{[4‐(4,6‐Dimethylpyrimidin‐2‐yl)piperazin‐1‐yl]methyl}‐1H‐indole]",–,–,–
> 30,–,–,–,> 30,> 20,> 30,–,"COc1ccc2[nH]c(C(=O)N3CCN(c4nc(C)cc(C)n4)CC3)cc2c1 [Compound 24, 2‐[4‐(4,6‐Dimethylpyrimidin‐2‐yl)piperazine‐1‐carbonyl]‐5‐methoxy‐1H‐indole]",–,–,–
3.63,>28,>8,–,> 30,> 20,> 100,3,"COc1cccc2c(C(=O)N3CCN(c4nc(C)cc(C)n4)CC3)c[nH]c12 [Compound 20, 3‐[4‐(4,6‐Dimethylpyrimidin‐2‐yl)piperazine‐1‐carbonyl]‐7‐methoxy‐1H‐indole]",–,–,–
–,–,–,–,–,–,–,–,"CCCN(CCc1ccccc1)C1CCc2c(O)cccc2C1 (racemic) [(±)-PPHT.HCl, (±)-2-(N-phenethyl-N-propyl)amino-5-hydroxytetralin hydrochloride]",–,0.0133,–
18.8,>5,>2,–,> 30,> 20,> 100,–,"COc1cccc2[nH]cc(C(=O)N3CCN(c4nc(C)cc(C)n4)CC3)c12 [Compound 13, 3‐[4‐(4,6‐Dimethylpyrimidin‐2‐yl)piperazine‐1‐carbonyl]‐4‐methoxy‐1H‐indole]",–,–,–
> 100,–,–,–,–,> 20,–,–,"Cc1cc(C)nc(N2CCN(C(=O)CCCc3c[nH]c4ccccc34)CC2)n1 [Compound 8, 1‐[4‐(4,6‐Dimethylpyrimidin‐2‐yl)piperazin‐1‐yl]‐4‐(1H‐indol‐3‐yl)butan‐1‐one]",–,–,–
26.9,>4,>1,–,> 30,> 20,> 100,–,"Cc1cc(C)nc(N2CCN(C(=O)Cc3c[nH]c4cc(F)ccc34)CC2)n1 [Compound 19, 1‐[4‐(4,6‐Dimethylpyrimidin‐2‐yl)piperazin‐1‐yl]‐2‐(6‐fluoro‐1H‐indol‐3‐yl)ethan‐1‐one]",–,–,–
> 100,–,–,–,> 100,> 20,> 100,–,"Cc1cc(C)nc(N2CCN(C(=O)c3cc4cc(F)ccc4[nH]3)CC2)n1 [Compound 22, 2‐[4‐(4,6‐Dimethylpyrimidin‐2‐yl)piperazine‐1‐carbonyl]‐5‐fluoro‐1H‐indole]",–,–,–
> 100,–,–,–,–,> 20,–,–,"Cc1cc(C)nc(N2CCN(CCCCc3c[nH]c4ccccc34)CC2)n1 [Compound 12, 3‐{4‐[4‐(4,6‐Dimethylpyrimidin‐2‐yl)piperazin‐1‐yl]butyl}‐1H‐indole]",–,–,–
15.5,>7,1.26,–,19.5,> 20,> 100,–,"Cc1cc(C)nc(N2CCN(C(=O)c3c[nH]c4ccc(Cl)cc34)CC2)n1 [Compound 16, 5‐Chloro‐3‐[4‐(4,6‐dimethylpyrimidin‐2‐yl)piperazine‐1‐carbonyl]‐1H‐indole]",–,–,–
> 100,–,–,–,–,> 20,–,–,"Cc1cc(C)nc(N2CCN(CCCc3c[nH]c4ccccc34)CC2)n1 [Compound 11, 3‐{3‐[4‐(4,6‐Dimethylpyrimidin‐2‐yl)piperazin‐1‐yl]propyl}‐1H‐indole]",–,–,–
> 100,–,–,–,> 100,> 20,> 100,–,"Cc1cc(C)nc(N2CCN(C(=O)c3cc4ccccc4[nH]3)CC2)n1 [Compound 21, 2‐[4‐(4,6‐Dimethylpyrimidin‐2‐yl)piperazine‐1‐carbonyl]‐1H‐indole]",–,–,–
–,–,–,–,–,–,–,–,CCn1c(=O)c2c(nc(/C=C/c3ccc(OC)c(OC)c3)n2C)n(CC)c1=O [KW-6002],–,–,0.012

Structure (SMILES),Ki [1] [µM],hA1/hA2A [1],hA3/hA2A [1],fold decrease in hA2A affinity ([1]; versus compound 6) [fold],Ki [2] [µM],Ki [3] [µM],Ki [4] [µM],fold improvement in hA2A affinity ([1]; versus compound 5) [fold],Kd [5] [µM],Ki (D2 receptor) [µM],Ki (hA2A) [µM]
"Cc1cc(C)nc(N2CCN(CCc3c(C)[nH]c4ccccc34)CC2)n1 [Compound 10, 3‐{2‐[4‐(4,6‐Dimethylpyrimidin‐2‐yl)piperazin‐1‐yl]ethyl}‐2‐methyl‐1H‐indole]",34.4,>3,1.16,–,39.8,> 20,> 100,–,–,–,–
